Laboratory results taken from US20220288037A1, “PRODRUGS AND FORMULATIONS THEREOF” (BOARD OF REGENTS OF THE UNIVERSITY OF NEBRASKA, priority 2019, published 2022).

Assay: aqueous solubility of prodrug
Assay type: physicochemical
Settings: prodrug compared with parent drug, FIG. 1B
Source text: FIGS. 1A-1D provide characterization of a prodrug of nitazoxanide ([…]) and a nanoformulation thereof (NM1NTZ). FIG. 1A provides a Fourier transform infrared (FT-IR) spectrum of […] showing absorption bands at 2915 cm^-1 and 2850 cm^-1, thereby confirming formation of the prodrug as well as the nuclear magnetic resonance spectroscopy of the compound. FIG. 1B provides a graph of the aqueous solubility of […]. […] FIG. 1C provides a graph of cell viability as evaluated by mitochondrial function in monocyte-derived macrophage (MDM) by a 3-(4,5-dimethylthiazol-2-yl)-2,5-diphenyltetrazolium bromide (MTT) assay. NM1NTZ exerted no adverse effects to cell viability at 400 μM of drug or less. FIG. 1D provides graphs showing the particle size, polydispersity index (PDI) and charge of the nanoformulations over time, thereby showing the stability of the nanoparticles.

aqueous solubility: decreased water solubility
SMILES: CCCCCCCCCCCCCCCCCC(=O)Oc1ccccc1C(=O)Nc1ncc([N+](=O)[O-])s1 [M1NTZ]
